From paper PMC6361926, “A chemical approach for global protein knockdown from mice to non-human primates” (Cell Discovery, 2019)

Biological target: Bruton's tyrosine kinase (BTK) (Mus musculus, UniProt P35991)
Assay: PROTAC degradation of BTK in mouse tissues in vivo, immunoblot
Format: cell-based

Sequence of Bruton's tyrosine kinase (BTK) (P35991 2-659): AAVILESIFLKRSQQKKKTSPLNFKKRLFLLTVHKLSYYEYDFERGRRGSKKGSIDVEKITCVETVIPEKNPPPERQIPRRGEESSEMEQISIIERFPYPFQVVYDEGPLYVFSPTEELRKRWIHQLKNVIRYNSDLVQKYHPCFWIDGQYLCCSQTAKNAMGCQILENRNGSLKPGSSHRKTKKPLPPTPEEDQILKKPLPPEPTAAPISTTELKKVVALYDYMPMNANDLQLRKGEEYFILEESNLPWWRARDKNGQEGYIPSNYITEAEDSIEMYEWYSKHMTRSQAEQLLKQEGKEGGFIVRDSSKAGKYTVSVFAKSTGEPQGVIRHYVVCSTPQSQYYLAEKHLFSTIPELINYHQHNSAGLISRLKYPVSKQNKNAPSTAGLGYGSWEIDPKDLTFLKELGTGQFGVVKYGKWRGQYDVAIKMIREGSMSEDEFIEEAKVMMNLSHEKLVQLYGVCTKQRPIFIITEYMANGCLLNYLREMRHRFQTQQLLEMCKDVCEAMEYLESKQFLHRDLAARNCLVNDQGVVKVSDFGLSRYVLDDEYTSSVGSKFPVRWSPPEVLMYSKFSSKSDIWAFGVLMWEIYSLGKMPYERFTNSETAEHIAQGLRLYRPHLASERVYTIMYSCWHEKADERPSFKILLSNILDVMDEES

Compound: Nc1ncnc2c1c(-c1ccc(Oc3ccccc3)cc1)nn2[C@@H]1CCCN(C(=O)CCCc2cn(CCOCCOCCNc3cccc4c3C(=O)N(C3CCC(=O)NC3=O)C4=O)nn2)C1 (stereo partly shown) [P13IS]
- PROTAC degradation of BTK in mouse tissues in vivo, immunoblot: BTK in adipose, thymus, abdominal lymph node, and axillary lymph node was degraded efficiently
